Experimental data from US9999620B2, “CaMKK-β as a target for treating cancer” (Duke University, priority 2010, dated 2018).

How the values were obtained:
Format in all cases: cell-based, human
VCaP cells [1] = assay: Boyden dual chamber migration assay; conditions: 1 h +/-30 mM STO-609, overnight +/-10 nM R1881, 16 h migration, 5% FBS chemoattractant
Description: FIG. 6. CaMKKβ activity in androgen-mediated cell migration in prostate cancer cells. […] Cell lysates were then subjected to western blot analysis and subsequent densitometry (right). Phospho-[…]) levels were normalized to total CaMKI. Results are expressed as fold induction/phosphorylation over double vehicle-treated cells+SE (n=2). *, P<0.05 indicates significant changes from vehicle-treated cells. ^#, P<0.05 indicates significant changes from vehicle (no STO-609)-treated cells. B, VCaP cells were plated in 96-well plates and grown for 3 d. […] On d 10, cells were lysed and the relative number of cells was measured with the fluorescent DNA binding dye FluoReporter Blue. Each sample was performed in triplicate, and results from a representative experiment are shown. […] Cells were then dissociated and reseeded into the top chamber for a Boyden dual chamber migration assay. Fresh medium with the corresponding treatments was added to the top and bottom chambers while either no chemoattractant or 5% FBS (serum) was added to the bottom chamber. After 16 h, migrated cells were fixed, stained with crystal violet and counted in three different microscopic fields and added together. […]

[2] = test system: CaMKI phosphorylation (T177) by CaMKKβ; assay: Western blot of phospho-CaMKI (readout of CaMKKβ activity); conditions: for androgen-increased phosphorylation of CaMKI (T177): STO-609 pretreatment
Method: A, LNCaP cells were pretreated for 1 h with vehicle, 10 or 30 mM STO-609 prior to overnight treatment with vehicle, 100 pM or 10 nM R1881. Cell lysates were then subjected to western blot analysis and subsequent densitometry (right). Phospho-CaMKI (p-CaMKI) levels were normalized to total CaMKI. Results are expressed as fold induction/phosphorylation over double vehicle-treated cells+SE (n=2). *, P<0.05 indicates significant changes from vehicle-treated cells. ^#, P<0.05 indicates significant changes from vehicle (no STO-609)-treated cells.
A, LNCaP cells were pretreated for 1 h+/−30 mM STO-609 prior to overnight treatment+/−10 nM R1881. Cell lysates were then subjected to western blot analysis and subsequent densitometry (right). CaMKKβ levels were normalized to GAPDH. Phospho-CaMKI (p-CaMKI) levels were normalized to total CaMKI. Phospho-AMPK (p-AMPK) levels were normalized to total AMPK. Results are expressed as fold induction/phosphorylation over double vehicle-treated cells+SE (n=3). *, significant changes from vehicle-treated cells.

VCaP cells [3] = assay: Cell proliferation assay (FluoReporter Blue DNA content); conditions: +/-1 nM R1881 and +/-30 mM STO-609 on d 3, d 5, d 7, read on d 10
Description: FIG. 6. CaMKKβ activity in androgen-mediated cell migration in prostate cancer cells. […] Cell lysates were then subjected to western blot analysis and subsequent densitometry (right). Phospho-[…]) levels were normalized to total CaMKI. Results are expressed as fold induction/phosphorylation over double vehicle-treated cells+SE (n=2). *, P<0.05 indicates significant changes from vehicle-treated cells. ^#, P<0.05 indicates significant changes from vehicle (no STO-609)-treated cells. B, VCaP cells were plated in 96-well plates and grown for 3 d. […] On d 10, cells were lysed and the relative number of cells was measured with the fluorescent DNA binding dye FluoReporter Blue. Each sample was performed in triplicate, and results from a representative experiment are shown. […] Cells were then dissociated and reseeded into the top chamber for a Boyden dual chamber migration assay. […] After 16 h, migrated cells were fixed, stained with crystal violet and counted in three different microscopic fields and added together. […] Proliferation assays were performed as previously described (12) by measuring the cellular DNA content using the FluoReporter Blue Fluorometric double-stranded DNA Quantitation Kit (Invitrogen) as per the manufacturer's protocol.

LNCaP cells = assay: Matrigel extracellular matrix invasion assay; conditions: 1 h +/-30 mM STO-609, overnight +/-10 nM R1881
Method: FIG. 7. CaMKKβ activity in the androgen-mediated migration and invasion of prostate cancer cells. A, LNCaP cells were plated in 96-well plates and grown for 3 d. […] On d 10, cells were lysed and the relative number of cells was measured with the fluorescent DNA binding dye FluoReporter Blue. Each sample was performed in triplicate, and results from a representative experiment are shown. […] Cells were then dissociated and reseeded into the top chamber for a Boyden migration or Matrigel extracellular matrix invasion assay. Fresh medium with the corresponding treatments was added to the top and bottom chambers while either no chemoattractant or 5% FBS (serum) was added to the bottom chamber. After 16 h, migrated cells were fixed, stained and counted in three different microscopic fields and added together. […] C top, LNCaP cells were transfected with indicated siRNAs. […] D right, LNCaP cells stably expressing either GAL4 (control) or CaMKKβ were subjected to a migration assay as described in B using +/−5% FBS as chemoattractant. The results are expressed as mean+SE (n=3). *, significant changes from LNCaP-GAL4 cells. D left, western blot confirming CaMKKβ […]expression. Migration and invasion assays. Boyden dual chamber migration assays were performed as previously described (4). […]

O=C(O)c1ccc2c3c1cccc3c(=O)n1c3ccccc3nc21 [STO-609]
androgen-mediated migration (VCaP cells [1]): blocked the androgen-mediated migration
CaMKKβ activity (phospho-CaMKI levels) ([2]; LNCaP, 1 h pretreatment with 10 or 30 mM STO-609, then overnight 100 pM or 10 nM R1881): suppressed CaMKKβ activity
androgen-increased phosphorylation of CaMKI (T177) ([2]; LNCaP, 10 nM R1881): reversed
androgen-increased phosphorylation of CaMKI (T177) ([2]; VCaP): reversed
effect on cell number (androgen-mediated cellular growth) (VCaP cells [3]): no significant effect
androgen-mediated invasion through Matrigel extracellular matrix (LNCaP cells): inhibited androgen-mediated invasion
